Measured values reported in ChEMBL document CHEMBL1156342, “Five new diprenylated flavonols from the leaves of Broussonetia kazinoki” (2001).
Values after ≈ are worked out from the molar mass of the structure shown.

Experiments:
Format in all cases: functional
HCT-8 = assay: Cytotoxicity against human HCT8 cells after 5 days by MTT assay; conditions: HCT-8, 120 h, read-out: ED50 (the source's name)
A549 = assay: Cytotoxicity against human A549 cells after 5 days by MTT assay; conditions: A549, 120 h, read-out: ED50 (the source's name)
KB = assay: Cytotoxicity against human KB cells after 5 days by MTT assay; conditions: 120 h, read-out: ED50 (the source's name)

In the case of `C=CC(C)(C)c1c(O)cc(O)c2c(=O)c(O)c(-c3cc(O)c4c(c3)C=CC(C)(C)O4)oc12` [BROUSSONOL A], the EC50 (HCT-8) is reported as 9.1 µg/mL (≈ 20.8 µM), the EC50 (A549) is reported as 8.74 µg/mL (≈ 20 µM) and the EC50 (KB) is reported as over 10 µg/mL.

Work on `CC1Oc2cc(O)c3c(=O)c(O)c(-c4cc(O)c5c(c4)C=CC(C)(C)O5)oc3c2C1(C)C` (stereo unspecified) [BROUSSONOL B] yielded an EC50 (HCT-8) of 8.8 µg/mL (≈ 20.2 µM), an EC50 (A549) of 5.52 µg/mL (≈ 12.6 µM) and an EC50 (KB) of over 10 µg/mL.

With `CC(C)=CCc1cc(-c2oc3c4c(cc(O)c3c(=O)c2O)OC(C)C4(C)C)cc(O)c1O` (stereo unspecified) [BROUSSONOL C] the EC50 (HCT-8) was 9.63 µg/mL (≈ 22 µM), the EC50 (A549) was 7.77 µg/mL (≈ 17.7 µM) and the EC50 (KB) was over 10 µg/mL.

`CC(C)=CCc1cc(-c2oc3c(CC=C(C)C)c(O)cc(O)c3c(=O)c2O)cc(O)c1O` [BROUSSONOL D] showed an EC50 (HCT-8) of over 10 µg/mL, an EC50 (A549) of over 10 µg/mL and an EC50 (KB) of 4.15 µg/mL (≈ 9.46 µM).

Work on `CC(C)=CCc1cc(-c2oc3cc(O)c(CC=C(C)C)c(O)c3c(=O)c2O)cc(O)c1O` [BROUSSONOL E] yielded an EC50 (HCT-8) of over 10 µg/mL, an EC50 (A549) of over 10 µg/mL and an EC50 (KB) of over 10 µg/mL.

`CC(C)=CCc1c(CCCc2ccc(O)cc2O)cc(O)c(O)c1CC=C(C)C` [KAZINOL F] showed an EC50 (HCT-8) of over 10 µg/mL, an EC50 (A549) of over 10 µg/mL and an EC50 (KB) of over 10 µg/mL.

`COc1cc(O)ccc1CCCc1cc(O)c(O)c(CC=C(C)C)c1CC=C(C)C` [KAZINOL J] was tested, and the EC50 (HCT-8) was over 10 µg/mL, the EC50 (A549) was over 10 µg/mL and the EC50 (KB) was over 10 µg/mL.
